Organism: Rattus norvegicus
Assay: Open TG-GATES - Regimen: Single
Assay type: toxicity, organism-based, Sprague-Dawley
Design: regimen Single, gender Male, age 6 weeks
Settings: in vivo, po, 0 mg/kg, route gavage, dose level Control; for APTT / Bas / Eos / Fbg / Hb / Ht / Lym / MCH / MCHC / MCV / Mono / Neu / PT / Plat / RBC / Ret / WBC: tissue Blood; for KIDNEY_L / KIDNEY_R / KIDNEY_TOTAL: tissue Kidney; for LIVER: tissue Liver; for A/G / ALP / ALT / AST / BUN / CRE / Ca / Cl / DBIL / GLC / IP / K / LDH / Na / PL / RALB / TBIL / TC / TG / TP / gamma-GTP: tissue Plasma

CCCNC(=O)NS(=O)(=O)c1ccc(Cl)cc1 [CHLORPROPAMIDE]
TERMINAL_BW (3 h): 199.1 g
APTT (3 h): 16.5 s
Bas (3 h): 0.4%
Eos (3 h): 1%
Fbg (3 h): 290 mg/dL
Hb (3 h): 13.3 g/dL
Ht (3 h): 40.3%
Lym (3 h): 76.2%
MCH (3 h): 21.1 pg
MCHC (3 h): 32.9%
MCV (3 h): 64.1 fL
Mono (3 h): 3.4%
Neu (3 h): 17.8%
PT (3 h): 15.6 s
Plat (3 h): 118.9 x10_4/uL
RBC (3 h): 629.8 x10_4/ul
Ret (3 h): 8.9%
WBC (3 h): 85.4 x10_2/uL
KIDNEY_L (3 h): 0.9 g
KIDNEY_R (3 h): 0.9 g
KIDNEY_TOTAL (3 h): 1.8 g
LIVER (3 h): 8.8 g
A/G (3 h): 0.9
ALP (3 h): 1444 IU/L
ALT (3 h): 43.6 IU/L
AST (3 h): 75.8 IU/L
BUN (3 h): 10.4 mg/dL
CRE (3 h): 0.2 mg/dL
Ca (3 h): 10.9 mg/dL
Cl (3 h): 106 meq/L
DBIL (3 h): 0.01 mg/dL
GLC (3 h): 176.6 mg/dL
IP (3 h): 8.9 mg/dL
K (3 h): 4.3 meq/L
LDH (3 h): 89 IU/L
Na (3 h): 142.2 meq/L
PL (3 h): 137.8 mg/dL
RALB (3 h): 2.5 g/dL
TBIL (3 h): 0.04 mg/dL
TC (3 h): 80.2 mg/dL
TG (3 h): 53.8 mg/dL
TP (3 h): 5.4 g/dL
gamma-GTP (3 h): 1.4 IU/L
TERMINAL_BW (6 h): 194.7 g
APTT (6 h): 18.3 s
Bas (6 h): 0.2%
Eos (6 h): 1%
Fbg (6 h): 308.8 mg/dL
Hb (6 h): 13.2 g/dL
Ht (6 h): 40.5%
Lym (6 h): 71.2%
MCH (6 h): 21 pg
MCHC (6 h): 32.6%
MCV (6 h): 64.3 fL
Mono (6 h): 3%
Neu (6 h): 23.8%
PT (6 h): 15.4 s
Plat (6 h): 108.8 x10_4/uL
RBC (6 h): 630.6 x10_4/ul
Ret (6 h): 9.2%
WBC (6 h): 85.6 x10_2/uL
KIDNEY_L (6 h): 0.9 g
KIDNEY_R (6 h): 0.9 g
KIDNEY_TOTAL (6 h): 1.7 g
LIVER (6 h): 8.2 g
A/G (6 h): 0.9
ALP (6 h): 1385.6 IU/L
ALT (6 h): 42.4 IU/L
AST (6 h): 74.4 IU/L
BUN (6 h): 9.4 mg/dL
CRE (6 h): 0.2 mg/dL
Ca (6 h): 10.7 mg/dL
Cl (6 h): 106 meq/L
DBIL (6 h): 0.01 mg/dL
GLC (6 h): 174 mg/dL
IP (6 h): 9.8 mg/dL
K (6 h): 4.2 meq/L
LDH (6 h): 63.6 IU/L
Na (6 h): 143 meq/L
PL (6 h): 153.4 mg/dL
RALB (6 h): 2.5 g/dL
TBIL (6 h): 0.046 mg/dL
TC (6 h): 90.6 mg/dL
TG (6 h): 50.6 mg/dL
TP (6 h): 5.4 g/dL
gamma-GTP (6 h): 1 IU/L
TERMINAL_BW (9 h): 194.8 g
APTT (9 h): 18.5 s
Bas (9 h): 0%
Eos (9 h): 0.8%
Fbg (9 h): 294.6 mg/dL
Hb (9 h): 12.9 g/dL
Ht (9 h): 39.6%
Lym (9 h): 74.4%
MCH (9 h): 21.3 pg
MCHC (9 h): 32.8%
MCV (9 h): 65.1 fL
Mono (9 h): 2.2%
Neu (9 h): 21%
PT (9 h): 15.4 s
Plat (9 h): 119.1 x10_4/uL
RBC (9 h): 607.8 x10_4/ul
Ret (9 h): 9.1%
WBC (9 h): 91.1 x10_2/uL
KIDNEY_L (9 h): 0.9 g
KIDNEY_R (9 h): 0.9 g
KIDNEY_TOTAL (9 h): 1.8 g
LIVER (9 h): 7.6 g
A/G (9 h): 0.9
ALP (9 h): 1410 IU/L
ALT (9 h): 42 IU/L
AST (9 h): 74.6 IU/L
BUN (9 h): 8.4 mg/dL
CRE (9 h): 0.2 mg/dL
Ca (9 h): 10.6 mg/dL
Cl (9 h): 106.8 meq/L
DBIL (9 h): 0.006 mg/dL
GLC (9 h): 165.4 mg/dL
IP (9 h): 10 mg/dL
K (9 h): 3.9 meq/L
LDH (9 h): 63.6 IU/L
Na (9 h): 142.8 meq/L
PL (9 h): 136.6 mg/dL
RALB (9 h): 2.5 g/dL
TBIL (9 h): 0.052 mg/dL
TC (9 h): 84.4 mg/dL
TG (9 h): 41.4 mg/dL
TP (9 h): 5.4 g/dL
gamma-GTP (9 h): 1 IU/L
TERMINAL_BW (24 h): 211.4 g
APTT (24 h): 16.9 s
Bas (24 h): 0.2%
Eos (24 h): 0.8%
Fbg (24 h): 277.8 mg/dL
Hb (24 h): 13 g/dL
Ht (24 h): 40.6%
Lym (24 h): 80%
MCH (24 h): 21.7 pg
MCHC (24 h): 32.2%
MCV (24 h): 67.3 fL
Mono (24 h): 2.8%
Neu (24 h): 15%
PT (24 h): 15.5 s
Plat (24 h): 117.6 x10_4/uL
RBC (24 h): 602.6 x10_4/ul
Ret (24 h): 9.2%
WBC (24 h): 102.7 x10_2/uL
KIDNEY_L (24 h): 0.9 g
KIDNEY_R (24 h): 0.9 g
KIDNEY_TOTAL (24 h): 1.9 g
LIVER (24 h): 10.1 g
A/G (24 h): 0.8
ALP (24 h): 1569 IU/L
ALT (24 h): 44.8 IU/L
AST (24 h): 71.8 IU/L
BUN (24 h): 14.6 mg/dL
CRE (24 h): 0.2 mg/dL
Ca (24 h): 10.9 mg/dL
Cl (24 h): 105.4 meq/L
DBIL (24 h): 0.012 mg/dL
GLC (24 h): 187 mg/dL
IP (24 h): 8.5 mg/dL
K (24 h): 4.2 meq/L
LDH (24 h): 79.4 IU/L
Na (24 h): 142.6 meq/L
PL (24 h): 154 mg/dL
RALB (24 h): 2.6 g/dL
TBIL (24 h): 0.034 mg/dL
TC (24 h): 82.6 mg/dL
TG (24 h): 108.6 mg/dL
TP (24 h): 5.6 g/dL
gamma-GTP (24 h): 1 IU/L

From ChEMBL document CHEMBL3885861, “Open TG-GATES”
